# Patent US6180650A, “Heterosubstituted pyridine derivatives as PDE 4 inhibitors” (Merck Frosst Canada & Co., priority 2000, dated 2001)
# Target: T1, GST-Met 248 PDE 4a (Homo sapiens, UniProt P27815)
# T1 construct: phosphodiesterase IVa (met-248); made in house; host or cells: baculovirus/Sf-9
# Experiment: SPA based PDE activity assay (IC50, purified GST fusion protein of human recombinant phosphodiesterase IVa (met-248), baculovirus/Sf-9)
# Format: biochemical
# Conditions: 100 nM cAMP, 30° C., pH 7.5, 10 min; approximated by non-linear regression of a ten point titration
# Description: SPA BASED PDE ACTIVITY ASSAY PROTOCOL Compounds which inhibit the hydrolysis of cAMP to AMP by the type-IV cAMP-specific phosphodiesterases were screened in 96-well plate format as follows: In a 96 well-plate at 30° C. was added the test compound (dissolved in 2 μl DMSO), […] of substrate buffer containing [2,8-^3 H] adenosine 3',5'-cyclic phosphate (cAMP, 100 nM to 50 μM), 10 mM MgCl2, 1 mM EDTA, 50 mM Tris, pH 7.5. The reaction was initiated by the addition of […] of human recombinant PDE-IV (the amount was controlled so that ~10% product was formed in 10 min.). The reaction was stopped after 10 min. by the addition of 1 mg of PDE-SPA beads (Amersham). The product AMP generated was quantified on a Microbeta 96-well plate counter. The signal in the absence of enzyme was defined as the background. 100% activity was defined as the signal detected in the presence of enzyme and DMSO with the background subtracted. Percentage of inhibition was calculated accordingly. IC50 value was approximated with a non-linear regression fit using the standard 4-parameter/multiple binding sites equation from a ten point titration. IC50 values shown in Table 7 were determined with 100 nM cAMP using the purified GST fusion protein of the human recombinant phosphodiesterase IVa (met-248) produced from a baculovirus/Sf-9 expression system.
# T1 sequence (P27815 248-886 limits assumed): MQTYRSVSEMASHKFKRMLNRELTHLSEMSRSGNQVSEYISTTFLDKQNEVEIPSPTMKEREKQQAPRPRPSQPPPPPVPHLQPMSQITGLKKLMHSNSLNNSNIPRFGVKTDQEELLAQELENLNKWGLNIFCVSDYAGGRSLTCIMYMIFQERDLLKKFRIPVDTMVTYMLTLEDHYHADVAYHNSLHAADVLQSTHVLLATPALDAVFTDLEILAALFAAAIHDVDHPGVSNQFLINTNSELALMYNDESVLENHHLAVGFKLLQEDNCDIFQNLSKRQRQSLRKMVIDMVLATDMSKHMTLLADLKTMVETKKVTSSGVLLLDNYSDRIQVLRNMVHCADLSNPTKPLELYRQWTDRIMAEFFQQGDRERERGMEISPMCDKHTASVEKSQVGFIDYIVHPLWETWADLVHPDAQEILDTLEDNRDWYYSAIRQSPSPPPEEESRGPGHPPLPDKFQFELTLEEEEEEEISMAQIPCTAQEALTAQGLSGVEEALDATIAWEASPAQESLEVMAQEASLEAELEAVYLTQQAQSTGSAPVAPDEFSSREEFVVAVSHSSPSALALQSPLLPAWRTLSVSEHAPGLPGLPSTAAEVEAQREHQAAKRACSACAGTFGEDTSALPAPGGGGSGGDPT
row,IC50 [nM],Compound
1,2.85,"[O-][n+]1ccc(CC(c2ccc(Oc3ccc(OC(F)(F)F)cc3)nc2)c2ccc(OC(F)F)c(OC(F)F)c2)cc1 (racemic) [Example 1, 4-{2-[3,4-Bis(difluoromethoxy)phenyl]-2-{6-[4-(trifluoromethoxy)phenoxy]3-pyridyl}ethyl}pyridine-N-oxide]"
2,1.43,"[O-][n+]1ccc(CC(c2ccc(OCc3ccc(F)c(F)c3)nc2)c2ccc(OC(F)F)c(OC(F)F)c2)cc1 (racemic) [Example 16, 4-{2-[3,4-Bis(difluoromethoxy)phenyl]-2-[6-(3,4-difluorobenzyloxy)3-pyridyl]ethyl}pyridine-N-oxide]"
3,3.2,"CC(C)(COc1ccc(C(Cc2cc[n+]([O-])cc2)c2ccc(OC(F)F)c(OC(F)F)c2)cn1)c1ccc(F)cc1 (racemic) [Example 23, 4-{2-[3,4-Bis(difluoromethoxy)phenyl]-2-{6-[2-methyl-2-(4-fluorophenyl)propyloxy]3-pyridyl}ethyl}pyridine-N-oxide]"
4,0.2,"CC(C)(Cc1ccccc1)Oc1ccc(C(Cc2cc[n+]([O-])cc2)c2ccc(OC(F)F)c(OC(F)F)c2)cn1 (racemic) [Example 28, 4-{2-[3,4-Bis(difluoromethoxy)phenyl]-2-[6-(1,1-dimethyl-2-phenylethoxy)3-pyridyl]ethyl}pyridine-N-oxide]"
